Results on two compounds are retold here after PMC6039549, “The Sodium Sialic Acid Symporter From Staphylococcus aureus Has Altered Substrate Specificity” (Frontiers in Chemistry, 2018).

In experiment [1] the target is T1, SaSiaT (sodium sialic acid symporter) (Staphylococcus aureus, UniProt A0A0H2XJ46).
T1 construct: gene SAUSA300_0314; recombinant SaSiaT, GFP-tag cleaved with HRV3C protease, purified in DDM
The experiment can be described thus: isothermal titration calorimetry (n = […]); microscale thermophoresis gives Kd =[…]; proteoliposome transport KM […]. It is filed as binding. In general terms: Isothermal titration calorimetry measures the heat released or taken up as one component is titrated into another.

For experiment [2], the target named is T1, SaSiaT (sodium sialic acid symporter). The experiment can be described thus: isothermal titration calorimetry (n = […]); microscale thermophoresis gives Kd =[…]. It is filed as binding.

T1 sequence (A0A0H2XJ46 entry or part of it): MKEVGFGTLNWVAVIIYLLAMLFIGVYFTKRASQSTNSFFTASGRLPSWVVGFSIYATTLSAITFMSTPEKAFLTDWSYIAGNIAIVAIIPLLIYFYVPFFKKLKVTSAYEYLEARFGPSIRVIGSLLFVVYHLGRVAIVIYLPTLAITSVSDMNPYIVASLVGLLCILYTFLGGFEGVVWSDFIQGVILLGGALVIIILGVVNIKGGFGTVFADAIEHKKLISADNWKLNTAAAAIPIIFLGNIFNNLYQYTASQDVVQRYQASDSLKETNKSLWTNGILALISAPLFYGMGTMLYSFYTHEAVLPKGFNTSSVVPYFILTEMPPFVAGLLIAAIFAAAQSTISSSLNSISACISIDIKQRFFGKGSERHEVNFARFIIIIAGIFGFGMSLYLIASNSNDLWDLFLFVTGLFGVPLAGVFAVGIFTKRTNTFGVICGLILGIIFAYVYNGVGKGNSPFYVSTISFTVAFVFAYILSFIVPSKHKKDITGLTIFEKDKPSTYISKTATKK

Take `CC(=O)N[C@H]1[C@H]([C@H](O)[C@H](O)CO)OC(O)(C(=O)O)C[C@@H]1O` (some centres unmarked) [Neu5Ac, N-acetylneuraminic acid]: the Kd in experiment [1] was 106 ± 2 µM.
On to `O=C(CO)N[C@H]1[C@H]([C@H](O)[C@H](O)CO)O[C@@](O)(C(=O)O)C[C@@H]1O` [Neu5Gc, N-glycolylneuraminic acid], for which the Kd in experiment [2] is 18 ± 2 µM.

In general, Kd refers to the concentration at which binding is half-saturated. Low readings indicate tighter binding, high ones weaker binding.
